# Laboratory results published in patent publication US20100041620A1, “METHODS FOR IMPROVING FRONTAL BRAIN BIOENERGETIC METABOLISM” (priority 2008, published 2010).
# Assays:
# [1] = test system: anterior cingulate cortex (ACC); test: 31P magnetic resonance spectroscopic imaging (3D-CSI, 4 Tesla) of phosphorus metabolites, anterior cingulate cortex; type: in vivo, human
# Description: (§1) ^31P data were collected using a three-dimensional chemical shift imaging (3D-CSI) technique at 4 Tesla in healthy middle-aged individuals. The use of 3D-CSI at high field has several advantages over previous methods: (1) increased spectral dispersion, which allows for increased precision of metabolite quantification; (2) post-processing grid shifting that allows for 3D placement of voxels of interest; and (3) the ability to co-register voxel placement between baseline and post-treatment follow-up. High-energy metabolite peaks quantified in the present study include phosphocreatine (PCr), β-nucleoside triphosphate (NTP, ATP in brain), and inorganic phosphate (Pi). Phospholipid membrane metabolite peaks quantified include anabolites, phosphomonoesters (PME), including phosphoethanolamine (PE) and phosphocholine (PC), and catabolites, phosphodiesters (PDE), including glycerophosphoethanolamine (GPE) and glycerolphosphocholine (GPC). A region of interest approach was used to examine phosphorus metabolite levels in the anterior cingulate cortex (ACC), given the notable age-related decline in frontal brain metabolism and impairment of frontally-mediated cognitive functions. A comparison region placed in the parieto-occipital cortex (POC) was also evaluated. It was hypothesized that oral supplementation with citicoline would improve frontal bioenergetic metabolism via elevations in availability of high-energy phosphates, as well as alteration of membrane phospholipid turnover by providing additional membrane precursors.
# (§2) Subjects included sixteen neurologically and psychiatrically healthy adults (mean age=47.3±5.4 years; 8 females, 8 males). Trained research technicians administered a structured clinical psychiatric interview using the Structured Clinical Interview for DSM-IV (SCID). All subjects were free of Axis I diagnoses, neurological illness, severe medical problems, and psychoactive substance use.
# (§3) Subjects were randomly assigned to receive a six-week supply of either 500 mg (4 males and 4 females) or 2000 mg (4 males and 4 females) of Cognizin® Citicoline (Kyowa Hakko Kogyo Co., Ltd., JAPAN). Subjects were instructed to take one capsule every day (500 mg group) or four capsules every day in a single dose (2000 mg group) for six weeks. […] Magnetic resonance spectroscopy (MRS) was completed on all subjects in two imaging sessions: one prior to beginning treatment (baseline) and one after completing six weeks of treatment.
# (§4) All proton imaging was performed using the proton channel of the dual tuned open face proton-phosphorus TEM whole-head coil from Bioengineering Inc. (Minneapolis, Minn.) operating at a nominal frequency of 170.3 MHz. A 2D gradient-recalled echo imaging sequence (12 seconds duration) was used to acquire a single image in all three spatial dimensions (sagittal, coronal, axial) to quickly determine the patient's position and angle. High-contrast, T1-weighted sagittal, coronal images as well as T1 and T2-weighted transverse images of the entire brain were acquired using a three-dimensional, magnetization-prepared FLASH imaging sequence (3D-MP FLASH), allowing for clear segmentation between grey-matter, white-matter, and CSF, as well as clearly delineating between the different anatomical regions of interest. This approach was used to optimize ^31P-MRSI voxel positioning and volumetric correction in the regions of interest.
# (§5) Phosphorus MRSI was performed using the phosphorus channel of the dual tuned proton-phosphorus TEM whole-head coil from Bioengineering Inc. (Minneapolis, Minn.) operating at 68.9 MHz. Phosphorus MRSI data were recorded using a three-dimensional chemical shift imaging (3D-CSI) sequence (Garraux, Neuroimage 10:149-162, 1999). […]
# [2] = test system: parieto-occipital cortex (POC); test: 31P magnetic resonance spectroscopic imaging (3D-CSI, 4 Tesla) of phosphorus metabolites, parieto-occipital cortex comparison region; type: in vivo, human; conditions: 6 weeks oral citicoline, doses pooled, mean ± SD
# Description: as §1, §2, §3, §4, §5
# [3] = six weeks of citicoline supplementation, decrease
# [4] = six weeks of citicoline supplementation, increase
compound,measurement,setting,value
"C[N+](C)(C)CCOP(=O)(O)OP(=O)([O-])OC[C@H]1O[C@@H](n2ccc(N)nc2=O)[C@H](O)[C@@H]1O [citicoline, cytidine 5′-diphosphocholine]","PCr, metabolite ratio relative to the total 31P signal","[1]; 6 weeks oral citicoline, 500 and 2000 mg/day groups pooled, mean ± SD, baseline .154 ± .019, p .02",.162 ± .015
same,PCr/Pi,"[1]; 6 weeks oral citicoline, doses pooled, mean ± SD, baseline 2.17 ± .46, p .03",2.82 ± 1.04
same,"PC, metabolite ratio relative to the total 31P signal","[1]; 6 weeks oral citicoline, doses pooled, mean ± SD, baseline .026 ± .010, p .02",.019 ± .008
same,"GPE, metabolite ratio relative to the total 31P signal","[1]; 6 weeks oral citicoline, doses pooled, mean ± SD, baseline .039 ± .010, p .01",.030 ± .009
same,"PE, metabolite ratio relative to the total 31P signal","[1]; 6 weeks oral citicoline, doses pooled, mean ± SD, baseline .043 ± .015, p .04",.054 ± .008
same,"GPC, metabolite ratio relative to the total 31P signal","[1]; 6 weeks oral citicoline, doses pooled, mean ± SD, baseline .051 ± .015, ns",.047 ± .016
same,"β-NTP, metabolite ratio relative to the total 31P signal","[1]; 6 weeks oral citicoline, doses pooled, mean ± SD, baseline .066 ± .012, p .05",.075 ± .014
same,"PME, metabolite ratio relative to the total 31P signal","[1]; 6 weeks oral citicoline, doses pooled, mean ± SD, baseline .069 ± .016, ns",.073 ± .012
same,"Pi, metabolite ratio relative to the total 31P signal","[1]; 6 weeks oral citicoline, doses pooled, mean ± SD, baseline .073 ± .012, p .15",.065 ± .022
same,"PDE, metabolite ratio relative to the total 31P signal","[1]; 6 weeks oral citicoline, doses pooled, mean ± SD, baseline .183 ± .032, p .07",.154 ± .049
same,"decreased GPE, change from baseline",[1]; [3],23%
same,"decreased PC, change from baseline",[1]; [3],29%
same,"increased PCr/Pi, change from baseline","[1]; six weeks of citicoline supplementation, doses pooled, increase",32%
same,"increased PCr, change from baseline",[1]; [4],7%
same,"increased PE, change from baseline",[1]; [4],26%
same,"increased β-NTP, change from baseline",[1]; [4],14%
same,"Pi, metabolite ratio relative to the total 31P signal","[1]; six weeks, 2000 mg/day group, baseline 0.069±0.010, p=0.57",0.073±0.019
same,PCr/Pi ratio,"[1]; six weeks, 2000 mg/day group, baseline 2.41±0.52, p=0.84",2.33±0.61
same,"increased PCr/Pi, change from baseline","[1]; six weeks, low dose (500 mg), increase",66%
same,"decreased Pi, change from baseline","[1]; six weeks, low dose only (500 mg), decrease",26%
same,PCr/Pi,"[2]; baseline 2.30 ± .34, ns",2.38 ± .53
same,"PC, metabolite ratio relative to the total 31P signal","[2]; baseline .023 ± .009, ns",.026 ± .012
same,"GPE, metabolite ratio relative to the total 31P signal","[2]; baseline .034 ± .011, ns",.032 ± .014
same,"GPC, metabolite ratio relative to the total 31P signal","[2]; baseline .047 ± .017, ns",.047 ± .010
same,"β-NTP, metabolite ratio relative to the total 31P signal","[2]; baseline .063 ± .009, ns",.066 ± .010
same,"PE, metabolite ratio relative to the total 31P signal","[2]; baseline .065 ± .009, ns",.058 ± .010
same,"Pi, metabolite ratio relative to the total 31P signal","[2]; baseline .072 ± .010, ns",.075 ± .013
same,"PME, metabolite ratio relative to the total 31P signal","[2]; baseline .088 ± .015, ns",.084 ± .011
same,"PCr, metabolite ratio relative to the total 31P signal","[2]; baseline .164 ± .016, ns",.173 ± .015
same,"PDE, metabolite ratio relative to the total 31P signal","[2]; baseline .165 ± .029, ns",.152 ± .030
